# Measurements from PMC9737847, “Complex Formation between Cytochrome c and a Tetra-alanino-calix[4]arene” (International Journal of Molecular Sciences, 2022).
# Biological target: T1, cytochrome c (Saccharomyces cerevisiae, UniProt P00044, C108T)
# T1 construct: gene CYC1; 15N-labeled cytochrome c C102T, residues numbered from -5 to 103
# Experiment: 1H-15N HSQC NMR titration, […] binding model, […] °C, pH […]
# T1 sequence (P00044 2-109 C108T): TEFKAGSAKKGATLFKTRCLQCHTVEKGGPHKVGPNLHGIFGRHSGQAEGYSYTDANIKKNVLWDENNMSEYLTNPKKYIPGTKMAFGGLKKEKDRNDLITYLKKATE
smiles,measurement,value
"C[C@H](NC(=O)c1cc2c3c(c1)Cc1cc(C(=O)N[C@@H](C)C(=O)O)cc4c1OCCOCCOc1c(cc(C(=O)N[C@@H](C)C(=O)O)cc1Cc1cc(C(=O)N[C@@H](C)C(=O)O)cc(c1OCCOCCO3)C2)C4)C(=O)O [compound 1, Tetra-alanino-calix[4]arene-biscrown-3]",Kd,~400 µM
